In one data set the target is MC1 receptor (Homo sapiens, UniProt Q01726). Description: biochemical. The procedure: Assay (IV)—Melanocortin Receptor 1 (MC1) Binding Assay
The MC1 receptor binding assay was performed on BHK cell membranes stably expressing the MC1 receptor. The assay was performed in a total volume of 250 μl: 25 μl of ^125NDP-α-MSH (22 pM in final concentration), 25 μl of test compound/control and 200 μl of cell membrane (25 μg/ml). Test compounds were dissolved in DMSO. Radioactively labeled ligand, membranes and test compounds were diluted in buffer: 25 mM HEPES, pH 7.4, 0.1 mM CaCl2, 1 mM MgSO4, 1 mM EDTA, 0.1% HSA and 0.005% Tween™ 20. Alternatively, HSA may be substituted with ovalbumin. The samples were incubated at 30° C. for 90 min. in Costar round-bottom microtiter plates. Incubation was terminated by filtration on a Packard harvester filtermate. Rapid filtration through Packard Unifilter-96 GF/B filters pre-treated with polyetylenimine (PerkinElmer 6005277). The filters were washed with ice-cold 0.9% NaCl 8-10 times. The plates were air-dried at app. 55° C. for 30 min, and 50 μl Microscint 0 (Packard, cat. No. 6013616) was added to each well. The plates were counted in a Topcounter (1 min/well).
The data were analysed by non-linear regression analysis of binding curves, using the Windows™ program GraphPad™ Prism (GraphPad Software, USA).

A further data set can be described thus: physchem. How it is done: From a stock solution in vehicle, either H2O or 10 mM phosphate, containing 1 mg (as weighed) compound per ml, 8-11 aliquots are withdrawn and pH-adjusted individually with HCl/NaOH, to cover the whole pH range.

In brackets after ≈: the same amount, converted by molar mass. Positions of bridges follow the written chain, without caps; N, C: chain ends. Non-standard residues stand in square brackets, D forms with d. Residues, ends and D or L forms follow the SMILES beside them. Groups on a side chain read outwards from the residue. *: point of attachment. Palmitoyl(16-(5-tetrazolyl)) = O=C(CCCCCCCCCCCCCCCc1nnn[nH]1)*; Lys(CH2CO2H)2 = N[C@@H](CCCCN(CC(=O)O)CC(=O)O)C(=O)O; X1 = O=C(O)CCCCCCCCCCCCCCCCC(=O)NCCOCCOCCN*; C16 diacid = O=C(O)CCCCCCCCCCCCCCC(=O)*; C14 diacid = O=C(O)CCCCCCCCCCCCC(=O)*; NTA = O=C(O)CN(CC(=O)O)CC(=O)*; hCys = N[C@@H](CCS)C(=O)O; Orn = NCCC[C@H](N)C(=O)O; Dab = NCC[C@H](N)C(=O)O; Dap = NC[C@H](N)C(=O)O; AEEA = NCCOCCOCC(=O)O Where only a bound is given, the exact number is not on record here.

Sequence of MC1 receptor (Q01726 whole entry): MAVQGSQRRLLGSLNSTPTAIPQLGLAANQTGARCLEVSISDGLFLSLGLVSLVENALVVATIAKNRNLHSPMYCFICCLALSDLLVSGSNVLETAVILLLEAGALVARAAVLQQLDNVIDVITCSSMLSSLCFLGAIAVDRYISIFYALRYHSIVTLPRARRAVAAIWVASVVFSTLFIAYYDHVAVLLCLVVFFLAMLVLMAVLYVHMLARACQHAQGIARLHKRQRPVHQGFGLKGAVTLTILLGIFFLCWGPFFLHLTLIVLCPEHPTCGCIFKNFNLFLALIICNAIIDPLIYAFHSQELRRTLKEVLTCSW

What is called Ki is the dissociation constant of the complex between target and ligand, obtained from inhibition or displacement. A lower Ki goes with higher affinity. As to `CC(=O)N[C@H]1CCSSC[C@@H](C(=O)N2CCC[C@H]2C(=O)N2CCC[C@H]2C(=O)N[C@@H](CCCCN)C(=O)N[C@@H](CC(=O)O)C(=O)N[C@@H](CNC(=O)CN(CC(=O)O)CC(=O)O)C(=O)N[C@@H](CCCCNC(=O)COCCOCCNC(=O)CCCCCCCCCCCCCCCc2nnn[nH]2)C(=O)O)NC(=O)[C@H](Cc2c[nH]c3ccccc23)NC(=O)[C@H](CCCNC(=N)N)NC(=O)[C@@H](Cc2ccccc2)NC(=O)[C@H](Cc2c[nH]cn2)NC1=O` [Example 4, Ac-c[homoCys-His-D-Phe-Arg-Trp-Cys]-Pro-Pro-Lys-Asp-Dap(BCMA)-Lys[(2-{2-[16-(tetrazol-5-yl)hexadecanoylamino]ethoxy}ethoxy)acetyl]-OH] (Ac-[hCys]H[dF]RWCPPKD[Dap](NTA)K([AEEA-Palmitoyl(16-(5-tetrazolyl))])-OH; disulfide 1-6), the Ki on MC1 receptor was over 10 µM.

For `CC(=O)N[C@H]1CCSSC[C@@H](C(=O)N2CCC[C@H]2C(=O)N2CCC[C@H]2C(=O)N[C@@H](CCCCN)C(=O)N[C@@H](CC(=O)O)C(=O)N[C@@H](CCCCNC(=O)CN(CC(=O)O)CC(=O)O)C(=O)N[C@@H](CCCCNC(=O)COCCOCCNC(=O)CCCCCCCCCCCCCCCc2nnn[nH]2)C(N)=O)NC(=O)[C@H](Cc2c[nH]c3ccccc23)NC(=O)[C@H](CCCNC(=N)N)NC(=O)[C@@H](Cc2ccccc2)NC(=O)[C@H](Cc2c[nH]cn2)NC1=O` [Example 65, Ac-c[homoCys-His-D-Phe-Arg-Trp-Cys]-Pro-Pro-Lys-Asp-Lys(BCMA)-Lys[(2-{2-[16-(tetrazol-5-yl)hexadecanoylamino]ethoxy}ethoxy)acetyl]-NH2] (Ac-[hCys]H[dF]RWCPPKDK(NTA)K([AEEA-Palmitoyl(16-(5-tetrazolyl))])-NH2; disulfide 1-6), on MC1 receptor, the Ki is over 10 µM.

Molecule `CC(=O)N[C@H]1CSSC[C@@H](C(=O)N2CCC[C@H]2C(=O)N2CCC[C@H]2C(=O)N[C@@H](CCCCN)C(=O)N[C@@H](CCC(=O)O)C(=O)N[C@@H](CCCCN(CC(=O)O)CC(=O)O)C(=O)N[C@@H](CCCCNC(=O)COCCOCCNC(=O)CCCCCCCCCCCCCCC(=O)O)C(N)=O)NC(=O)CNC(=O)[C@H](Cc2c[nH]c3ccccc23)NC(=O)[C@H](CCCNC(=N)N)NC(=O)[C@@H](Cc2ccccc2)NC(=O)[C@H](Cc2c[nH]cn2)NC(=O)[C@H](CCC(=O)O)NC1=O` [Example 59, Ac-c[Cys-Glu-His-D-Phe-Arg-Trp-Gly-Cys]-Pro-Pro-Lys-Glu-Lys(biscarboxymethyl)-Lys({2-[2-(15-carboxypentadecanoylamino)ethoxy]ethoxy}acetyl)-NH2] (Ac-CEH[dF]RWGCPPKE[Lys(CH2CO2H)2]K([AEEA-C16 diacid])-NH2; disulfide 1-8) came in with an inhibition constant Ki on MC1 receptor of over 10 µM.

The term solubility denotes how much of the substance goes into solution per volume. Low readings indicate a poorly soluble substance, high ones a readily soluble substance. Take `CC(=O)N[C@H]1CCCNC(=O)C[C@@H](C(=O)N2CCC[C@H]2C(=O)N[C@@H](CO)C(=O)N[C@@H](CO)C(=O)N[C@@H](CO)C(=O)N[C@@H](CCCCN(CC(=O)O)CC(=O)O)C(=O)N[C@@H](CO)C(=O)N[C@@H](CO)C(=O)N[C@@H](CCCCNC(=O)COCCOCCNC(=O)CCCCCCCCCCCCCCC(=O)O)C(N)=O)NC(=O)[C@H](Cc2c[nH]c3ccccc23)NC(=O)[C@H](CCCNC(=N)N)NC(=O)[C@@H](Cc2ccccc2)NC(=O)[C@H](Cc2c[nH]cn2)NC1=O` [Example 12, Ac-c[Orn-His-D-Phe-Arg-Trp-Asp]-Pro-Ser-Ser-Ser-Lys(biscarboxymethyl)-Ser-Ser-Lys({2-[2-(15-carboxypentadecanoylamino)ethoxy]ethoxy}acetyl)-NH2] (Ac-[Orn]H[dF]RWDPSSS[Lys(CH2CO2H)2]SSK([AEEA-C16 diacid])-NH2; lactam 1-6): the solubility in the data set “physchem” (pH 4.8, Solubility Conc., pH 4.8, vehicle 10 mM phosphate) stood at 228 µM (≈ 505 µg/mL); in the data set “physchem” (pH 5.8, Solubility Conc., pH 5.8, vehicle 10 mM phosphate), 300 µM (≈ 665 µg/mL); in “physchem” (pH 6.3, Solubility Conc., pH 6.3, vehicle 10 mM phosphate), 400 µM (≈ 886 µg/mL); in the data set “physchem” (pH 6.7, Solubility Conc., pH 6.7, vehicle 10 mM phosphate), 431 µM (≈ 955 µg/mL); in the data set “physchem” (pH 7, Solubility Conc., pH 7.0, vehicle 10 mM phosphate), 426 µM (≈ 944 µg/mL); in the data set “physchem” (pH 7.2, Solubility Conc., pH 7.2, vehicle 10 mM phosphate) it was 479 µM (≈ 1060 µg/mL). Besides, the solubility came to 405 µM (≈ 897 µg/mL) in “physchem” (pH 7.5, Solubility Conc., pH 7.5, vehicle 10 mM phosphate); 480 µM (≈ 1060 µg/mL) in “physchem” (pH 7.8, Solubility Conc., pH 7.8, vehicle 10 mM phosphate); 439 µM (≈ 973 µg/mL) in the data set “physchem” (pH 8.1, Solubility Conc., pH 8.1, vehicle 10 mM phosphate).

As to `CC(=O)N[C@H]1CCCNC(=O)C[C@@H](C(=O)N2CCC[C@H]2C(=O)N2CCC[C@H]2C(=O)N[C@@H](CCCNC(=N)N)C(=O)N[C@@H](CCC(=O)O)C(=O)N[C@@H](CCCCN(CC(=O)O)CC(=O)O)C(=O)N[C@@H](CO)C(=O)N[C@@H](CO)C(=O)NCCOCCOCCNC(=O)CCCCCCCCCCCCCCCCC(=O)O)NC(=O)[C@H](Cc2c[nH]c3ccccc23)NC(=O)[C@H](CCCNC(=N)N)NC(=O)[C@@H](Cc2ccccc2)NC(=O)[C@H](Cc2c[nH]cn2)NC1=O` [Example 50, Ac-c[Orn-His-D-Phe-Arg-Trp-Asp]-Pro-Pro-Arg-Glu-Lys(biscarboxymethyl)-Ser-Ser-NH(2-{2-[2-(17-carboxyheptadecanoylamino)ethoxy]ethoxy}ethyl)] (Ac-[Orn]H[dF]RWDPPRE[Lys(CH2CO2H)2]SS-X1; lactam 1-6), the solubility in the data set “physchem” (pH 6.5, Solubility Conc.) turned out to be 57 µM (≈ 127 µg/mL); in “physchem” (pH 7, Solubility Conc.), 92 µM (≈ 204 µg/mL); in “physchem” (pH 7.2, Solubility Conc.), 123 µM (≈ 273 µg/mL); in “physchem” (pH 7.4, Solubility Conc.), 156 µM (≈ 347 µg/mL); in “physchem” (pH 7.5, Solubility Conc.), 176 µM (≈ 391 µg/mL); in “physchem” (pH 7.7, Solubility Conc.) it was 197 µM (≈ 438 µg/mL). The solubility in the data set “physchem” (pH 7.8, Solubility Conc.) is 212 µM (≈ 471 µg/mL); in the data set “physchem” (pH 7.9, Solubility Conc.) it was 208 µM (≈ 462 µg/mL); in “physchem” (pH 8.2, Solubility Conc.), 212 µM (≈ 471 µg/mL).

For the molecule `CC(=O)N[C@H]1CCC(=O)NCCC[C@@H](C(=O)N2CCC[C@H]2C(=O)N2CCC[C@H]2C(=O)N[C@@H](CCCNC(=N)N)C(=O)N[C@@H](CC(=O)O)C(=O)N[C@@H](CCCCN(CC(=O)O)CC(=O)O)C(=O)N[C@@H](CCCCNC(=O)COCCOCCNC(=O)CCCCCCCCCCCCCCC(=O)O)C(N)=O)NC(=O)[C@H](Cc2c[nH]c3ccccc23)NC(=O)[C@H](CCCNC(=N)N)NC(=O)[C@@H](Cc2ccccc2)NC(=O)[C@H](Cc2cnc[nH]2)NC1=O` [Example 18, Ac-c[Glu-His-D-Phe-Arg-Trp-Orn]-Pro-Pro-Arg-Asp-Lys(biscarboxymethyl)-Lys({2-[2-(15-carboxypentadecanoylamino)ethoxy]ethoxy}acetyl)-NH2] (Ac-EH[dF]RW[Orn]PPRD[Lys(CH2CO2H)2]K([AEEA-C16 diacid])-NH2; lactam 1-6), the solubility stood at 193 µM (≈ 417 µg/mL) in “physchem” (pH 5.3, Solubility Conc.); 310 µM (≈ 670 µg/mL) in “physchem” (pH 6.1, Solubility Conc.); 326 µM (≈ 705 µg/mL) in the data set “physchem” (pH 6.4, Solubility Conc.); 392 µM (≈ 848 µg/mL) in the data set “physchem” (pH 6.5, Solubility Conc.); 447 µM (≈ 967 µg/mL) in “physchem” (pH 6.8, Solubility Conc.); 484 µM (≈ 1050 µg/mL) in “physchem” (pH 7.1, Solubility Conc.). Moreover, the solubility in the data set “physchem” (pH 7.4, Solubility Conc.) was found to be 449 µM (≈ 971 µg/mL); in “physchem” (pH 7.7, Solubility Conc.), 451 µM (≈ 975 µg/mL); in the data set “physchem” (pH 7.9, Solubility Conc.), 474 µM (≈ 1030 µg/mL).

For `CC(=O)N[C@H]1CCSSC[C@@H](C(=O)N2CCC[C@H]2C(=O)N2CCC[C@H]2C(=O)N[C@@H](CCCCN)C(=O)N[C@@H](CC(=O)O)C(=O)N[C@@H](CNC(=O)CN(CC(=O)O)CC(=O)O)C(=O)N[C@@H](CCCCNC(=O)COCCOCCNC(=O)CCCCCCCCCCCCC(=O)O)C(N)=O)NC(=O)[C@H](Cc2c[nH]c3ccccc23)NC(=O)[C@H](CCCNC(=N)N)NC(=O)[C@@H](Cc2ccccc2)NC(=O)[C@H](Cc2c[nH]cn2)NC1=O` [Example 69, Ac-c[homoCys-His-D-Phe-Arg-Trp-Cys]-Pro-Pro-Lys-Asp-Dap(BCMA)-Lys({2-[2-(13-carboxytridecanoylamino)ethoxy]ethoxy}acetyl)-NH2] (Ac-[hCys]H[dF]RWCPPKD[Dap](NTA)K([AEEA-C14 diacid])-NH2; disulfide 1-6), the Ki at MC1 receptor was over 10 µM.

For `CC(=O)N[C@H]1CCNC(=O)C[C@@H](C(=O)N2CCC[C@H]2C(=O)N2CCC[C@H]2C(=O)N[C@@H](CCCNC(=N)N)C(=O)N[C@@H](CC(=O)O)C(=O)N[C@@H](CCCCN(CC(=O)O)CC(=O)O)C(=O)N[C@@H](CCCCNC(=O)COCCOCCNC(=O)CCCCCCCCCCCCCCCc2nnn[nH]2)C(N)=O)NC(=O)[C@H](Cc2c[nH]c3ccccc23)NC(=O)[C@H](CCCNC(=N)N)NC(=O)[C@@H](Cc2ccccc2)NC(=O)[C@H](Cc2c[nH]cn2)NC1=O` [Example 25, Ac-c[Dab-His-D-Phe-Arg-Trp-Asp]-Pro-Pro-Arg-Asp-Lys(biscarboxymethyl)-Lys[(2-{2-[16-(tetrazol-5-yl)hexadecanoylamino]ethoxy}ethoxy)acetyl]-NH2] (Ac-[Dab]H[dF]RWDPPRD[Lys(CH2CO2H)2]K([AEEA-Palmitoyl(16-(5-tetrazolyl))])-NH2; lactam 1-6), the solubility was 24 µM (≈ 52.1 µg/mL) in the data set “physchem” (pH 6, Solubility Conc.); 34 µM (≈ 73.9 µg/mL) in “physchem” (pH 6.3, Solubility Conc.); 133 µM (≈ 289 µg/mL) in the data set “physchem” (pH 7, Solubility Conc.); 439 µM (≈ 954 µg/mL) in “physchem” (pH 7.3, Solubility Conc.); 472 µM (≈ 1030 µg/mL) in “physchem” (pH 7.4, Solubility Conc.); 479 µM (≈ 1040 µg/mL) in “physchem” (pH 7.5, Solubility Conc.). Also, the solubility in the data set “physchem” (pH 7.7, Solubility Conc.) was 471 µM (≈ 1020 µg/mL); in “physchem” (pH 8, Solubility Conc.), 498 µM (≈ 1080 µg/mL).
